Reference: PMC7488365 (Acta Pharmaceutica Sinica. B, 2019)

Legend:
[1] = target: T1, USP28 (Homo sapiens, UniProt Q96RU2); assay: biochemical; format: biochemical; settings: read-out: Inhibition rate at 12.5 μmol/L (%)
T1 sequence (Q96RU2 1-700): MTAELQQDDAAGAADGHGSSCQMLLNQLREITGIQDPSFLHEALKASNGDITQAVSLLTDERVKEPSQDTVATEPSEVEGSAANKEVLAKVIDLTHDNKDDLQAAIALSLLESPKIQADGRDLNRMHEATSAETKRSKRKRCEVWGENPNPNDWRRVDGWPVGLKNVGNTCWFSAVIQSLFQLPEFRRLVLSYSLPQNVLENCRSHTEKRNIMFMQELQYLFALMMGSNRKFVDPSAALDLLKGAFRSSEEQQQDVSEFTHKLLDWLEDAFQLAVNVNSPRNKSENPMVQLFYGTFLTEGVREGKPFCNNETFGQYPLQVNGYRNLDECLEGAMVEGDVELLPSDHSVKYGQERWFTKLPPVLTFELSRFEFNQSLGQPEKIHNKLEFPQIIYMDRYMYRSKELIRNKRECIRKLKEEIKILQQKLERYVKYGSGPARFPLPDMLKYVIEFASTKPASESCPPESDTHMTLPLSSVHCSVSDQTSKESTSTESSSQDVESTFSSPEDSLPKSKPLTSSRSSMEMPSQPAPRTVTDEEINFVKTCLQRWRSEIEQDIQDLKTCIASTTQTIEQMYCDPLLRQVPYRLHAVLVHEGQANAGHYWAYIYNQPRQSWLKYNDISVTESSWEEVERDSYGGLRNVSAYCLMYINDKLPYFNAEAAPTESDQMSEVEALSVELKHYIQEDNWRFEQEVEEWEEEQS

[2] = target: USP7 (Homo sapiens, UniProt Q93009); assay: Enzymatic inhibitory activity against USP7; format: biochemical
USP7, sequence (Q93009 whole entry, species assumed): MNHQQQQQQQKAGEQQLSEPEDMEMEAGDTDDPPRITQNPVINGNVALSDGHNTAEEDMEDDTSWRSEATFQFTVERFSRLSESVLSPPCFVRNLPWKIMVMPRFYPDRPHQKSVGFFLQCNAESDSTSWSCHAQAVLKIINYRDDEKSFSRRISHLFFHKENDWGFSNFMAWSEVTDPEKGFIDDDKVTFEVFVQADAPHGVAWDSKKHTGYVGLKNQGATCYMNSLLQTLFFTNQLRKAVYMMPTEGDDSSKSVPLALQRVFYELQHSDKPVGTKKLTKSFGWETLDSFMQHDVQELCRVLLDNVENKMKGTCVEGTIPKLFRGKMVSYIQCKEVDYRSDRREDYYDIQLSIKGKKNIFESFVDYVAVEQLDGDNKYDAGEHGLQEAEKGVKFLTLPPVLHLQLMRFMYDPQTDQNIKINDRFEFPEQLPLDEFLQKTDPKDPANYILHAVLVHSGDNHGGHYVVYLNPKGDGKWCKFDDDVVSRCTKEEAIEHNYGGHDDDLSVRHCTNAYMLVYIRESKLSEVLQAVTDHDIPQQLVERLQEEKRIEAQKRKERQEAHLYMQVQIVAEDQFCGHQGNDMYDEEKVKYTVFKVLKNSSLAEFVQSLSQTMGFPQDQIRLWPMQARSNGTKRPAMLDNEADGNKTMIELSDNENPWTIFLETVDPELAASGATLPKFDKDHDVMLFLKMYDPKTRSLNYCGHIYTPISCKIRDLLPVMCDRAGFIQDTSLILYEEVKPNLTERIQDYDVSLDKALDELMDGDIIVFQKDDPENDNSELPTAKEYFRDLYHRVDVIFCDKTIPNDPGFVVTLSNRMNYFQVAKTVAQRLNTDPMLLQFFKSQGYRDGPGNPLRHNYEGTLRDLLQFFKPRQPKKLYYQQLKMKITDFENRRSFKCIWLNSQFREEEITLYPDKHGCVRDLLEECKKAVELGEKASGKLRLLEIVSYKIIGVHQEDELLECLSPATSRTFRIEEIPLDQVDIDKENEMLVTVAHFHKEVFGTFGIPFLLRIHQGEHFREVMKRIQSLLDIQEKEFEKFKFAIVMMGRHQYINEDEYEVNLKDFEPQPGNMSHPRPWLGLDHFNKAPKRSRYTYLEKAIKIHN

[3] = target: LSD1 (Homo sapiens, UniProt O60341); assay: Enzymatic inhibitory activity against LSD1; format: biochemical
[4] = target: T1, USP28; assay: Bio-layer interferometry; format: binding
[5] = tested on: HGC-27 cells; assay: Annexin V-FITC/PI apoptosis analysis; format: cell-based, human
[6] = tested on: HGC-27 cells; assay: Cell cycle assay; format: cell-based, human; settings: HGC-27, 24 h
[7] = target: T2, USP28 in HGC-27 cells (Homo sapiens, UniProt Q96RU2); assay: Cellular thermal shift target engagement assay, HGC-27; format: cell-based; settings: HGC-27, 0.75 μmol/L, 3 h, 60 °C
T2 sequence (Q96RU2 1-1077): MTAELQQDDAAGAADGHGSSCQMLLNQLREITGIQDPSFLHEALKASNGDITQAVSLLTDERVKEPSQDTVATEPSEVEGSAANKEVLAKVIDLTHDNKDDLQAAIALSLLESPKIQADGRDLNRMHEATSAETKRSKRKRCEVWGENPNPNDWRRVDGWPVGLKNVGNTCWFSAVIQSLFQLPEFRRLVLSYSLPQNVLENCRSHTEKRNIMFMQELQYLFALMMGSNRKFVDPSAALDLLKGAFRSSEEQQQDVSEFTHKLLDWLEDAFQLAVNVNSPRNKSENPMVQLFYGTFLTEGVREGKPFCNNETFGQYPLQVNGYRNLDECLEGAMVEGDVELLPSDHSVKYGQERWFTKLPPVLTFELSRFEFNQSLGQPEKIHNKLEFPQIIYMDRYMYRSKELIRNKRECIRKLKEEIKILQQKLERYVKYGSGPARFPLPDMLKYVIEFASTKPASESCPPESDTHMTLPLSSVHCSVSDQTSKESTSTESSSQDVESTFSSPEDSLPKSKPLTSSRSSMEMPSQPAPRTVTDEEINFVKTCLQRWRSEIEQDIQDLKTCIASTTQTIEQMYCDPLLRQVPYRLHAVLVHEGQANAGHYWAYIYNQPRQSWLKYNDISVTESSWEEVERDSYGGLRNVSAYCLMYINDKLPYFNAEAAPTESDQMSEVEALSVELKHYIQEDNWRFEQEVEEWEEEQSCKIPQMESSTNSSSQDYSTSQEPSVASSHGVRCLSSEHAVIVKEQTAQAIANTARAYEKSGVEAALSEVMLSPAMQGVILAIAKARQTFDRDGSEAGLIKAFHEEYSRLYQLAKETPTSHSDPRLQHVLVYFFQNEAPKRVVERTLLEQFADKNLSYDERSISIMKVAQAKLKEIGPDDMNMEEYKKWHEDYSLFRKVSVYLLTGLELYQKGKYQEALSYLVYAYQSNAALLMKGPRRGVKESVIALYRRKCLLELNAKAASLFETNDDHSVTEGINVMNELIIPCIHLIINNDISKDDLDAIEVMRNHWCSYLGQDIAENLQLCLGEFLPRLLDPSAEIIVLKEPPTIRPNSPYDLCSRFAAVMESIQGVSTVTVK

[8] = target: T3, USP28 in MGC-803 cells (Homo sapiens, UniProt Q96RU2); assay: Cellular thermal shift target engagement assay, MGC-803; format: cell-based; settings: MGC-803, 0.75 μmol/L, 3 h, 60 °C
T3 sequence (Q96RU2 1-1077): T2 sequence (Q96RU2 1-1077)

[9] = tested on: USP28, LSD1 and total c-Myc in HGC-27 cells; assay: Western blotting of USP28, LSD1 and total c-Myc; format: cell-based, human; settings: HGC-27, 3 h, Western blotting
[10] = tested on: HGC-27 cells; assay: Colony formation, HGC-27; format: cell-based, human; settings: HGC-27, 0.75, 1.5 and 3.0 μmol/L, 8 days
[11] = tested on: MGC-803 cells; assay: Colony formation, MGC-803; format: cell-based, human; settings: MGC-803, 0.75, 1.5 and 3.0 μmol/L, 8 days
[12] = tested on: HGC-27 cells; assay: EdU incorporation assay; format: cell-based, human
[13] = tested on: HGC-27 cells; assay: Wound healing assay, HGC-27; format: cell-based, human; settings: HGC-27, 48 h
[14] = tested on: MGC-803 cells; assay: Wound healing assay, MGC-803; format: cell-based, human; settings: MGC-803, 48 h
[15] = tested on: HGC-27 cells; assay: Transwell migration assay, HGC-27; format: cell-based, human; settings: HGC-27, 48 h
[16] = tested on: MGC-803 cells; assay: Transwell migration assay, MGC-803; format: cell-based, human; settings: MGC-803, 48 h
[17] = tested on: GES-1 cells; assay: cells; settings: Homo sapiens, GES1, 72 h, read-out: IC50 cell viability GES-1
[18] = tested on: MGC-803 cells; assay: cells; settings: Homo sapiens, MGC-803, 72 h, read-out: IC50 cell viability MGC-803
[19] = tested on: MKN45 cells; assay: cells; settings: Homo sapiens, MKN-45, 72 h, read-out: IC50 cell viability MKN45
[20] = tested on: HGC-27 cells; assay: MTT cell viability assay, HGC-27; settings: Homo sapiens, HGC-27, 72 h, read-out: IC50 cell viability HGC-27

inhibition at 12.5 µM [1]: 90%
IC50 [2]: > 100 µM
IC50 [3]: > 100 µM
Kd [4]: 40 nM
USP28 thermal stabilization (CTSA) [7]: stabilized
USP28 thermal stabilization (CTSA) [8]: stabilized
IC50 [18]: 4.95 ± 0.33 µM
IC50 [19]: 1490 ± 980 nM
SMILES: CCCSc1nc(NCCN)c2nnn(Cc3ccc(Cl)cc3)c2n1 [Compound 19, N^1-(3-(4-Chlorobenzyl)-5-(propylthio)-3H-[1,2,3]triazolo[4,5-d]pyrimidin-7-yl)ethane-1,2-diamine]
apoptotic rate (Annexin V-FITC/PI, Q2) ([5]; HGC-27, 0.18 μmol/L): 6.5%
apoptotic rate (Annexin V-FITC/PI, Q2) ([5]; HGC-27, 0.37 μmol/L): 9.3%
apoptotic rate (Annexin V-FITC/PI, Q2) ([5]; HGC-27, 0.75 μmol/L): 10.5%
apoptotic rate (Annexin V-FITC/PI, Q2) ([5]; HGC-27, 1.5 μmol/L): 21.2%
percentage of cells in S phase ([6]; 0.18 μmol/L): 36.02%
percentage of cells in S phase ([6]; 0.37 μmol/L): 38.58%
percentage of cells in S phase ([6]; 0.75 μmol/L): 39.27%
percentage of cells in S phase ([6]; 1.5 μmol/L): 42.98%
USP28 expression [9]: decreased in a dose-dependent manner
protein levels of LSD1 and total c-Myc [9]: decreased correspondingly
colony formation [10]: dose-dependently inhibited colony formation
colony formation [11]: dose-dependently inhibited colony formation
DNA proliferation (EdU) [12]: suppressed DNA proliferation
wound healing [13]: apparently suppressed the wound healing
wound healing [14]: apparently suppressed the wound healing
cell migration (Transwell) [15]: apparently inhibited cell migration
cell migration (Transwell) [16]: apparently inhibited cell migration
IC50 [17]: 9.19 ± 1.15 µM
IC50 [20]: 610 ± 450 nM
